Positions of bridges follow the written chain, without caps; N, C: chain ends. Residues, ends and D or L forms follow the SMILES beside them. *: point of attachment. DOTA = O=C(O)CN1CCN(CC(=O)O)CCN(CC(=O)*)CCN(CC(=O)O)CC1; NODAGA = O=C(O)CN1CCN(CC(=O)O)CCN(C(CCC(=O)*)C(=O)O)CC1; Ahx = NCCCCCC(=O)O
Experiments:
[1] = Blood plasma protein binding, human plasma (ultrafiltration); format: in vitro ADME; conditions: human, plasma, 30 min, 37 °C, read-out: Fraction bound to blood plasma proteins
Method: (§1) The radiopeptides (0.3 MBq; 15 pmol) were incubated in human or murine blood plasma (150 μL) for 30 min at 37 °C followed by cooling on ice, addition of ice-cold PBS (150 μL) and transfer of the samples to amicon filter devices (Amicon Ultra, 0.5 mL, Merck Millipore; cutoff 10 kDa). The filter ensured the retention of the radiopeptides bound to mouse plasma proteins or human plasma proteins during filtration (14,000 rcf, 30 min at 4 °C). Afterward, the filter inserts were inverted and centrifuged again (200 rcf, 3 min) to recover the protein-bound fraction of the radiopeptides. The activities of the free radiopeptides in the filtrate, as well as in the filter insert and the plasma protein-bound radiopeptides (Abound), were counted for activity separately in a γ-counter. The total activity (Atotal) was determined as the sum of the activities in the filtrate, filter insert, and protein-bound fractions. The percentage of radiopeptide bound to mouse serum albumin (MSA) and human serum albumin (HSA) was calculated as Abound/Atotal*100. The results were presented as average ± SD of three independent experiments (Additional file 1).
(§2) Methods: The detailed methods are reported in the main article. Control experiments were performed by incubation of the respective radiopeptides in phosphate-buffered saline (PBS) instead of blood plasma, followed by ultracentrifugation using Amicon filters.

[2] = system: human blood plasma proteins; test: as above; format: in vitro ADME; conditions: 30 min, 37 °C
Method: as §1, §2

[3] = Blood plasma protein binding, mouse plasma (ultrafiltration); format: in vitro ADME; conditions: mouse, plasma, 30 min, 37 °C, read-out: Fraction bound to blood plasma proteins (converted)
Method: as §1, §2

[4] = system: mouse blood plasma proteins; test: as above; format: in vitro ADME; conditions: 30 min, 37 °C
Method: as §1, §2

[5] = molecular target: T1, ACE2 (Homo sapiens, UniProt Q9BYF1); test: ACE2-binding affinity (saturation binding on HEK-ACE2 cells); conditions: on ice, 1 h
T1 construct: host or cells: HEK-293
Method: In order to determine the KD values of the DX600-based radiopeptides and [^67Ga]Ga-DOTA-BPP9a, HEK-ACE2 and HEK-ACE cells were seeded in 48-well-plates allowing adhesion and growth overnight. The cell samples were incubated with increasing concentrations (1‒2000 nM) of the radiopeptides (5 MBq/nmol) on ice. Some of the cell samples were co-incubated with an excess of cyclo-DX600 or lisinopril (20 µM, 10 nmol) to block ACE2 or ACE, respectively, enabling the determination of non-specific binding (Additional file 1). After 1 h incubation, the cells were rinsed with PBS and lysed with NaOH (1 M, 600 µL) to count the activity in a γ-counter. The KD values were determined by plotting specific binding (total binding minus unspecific binding) against the molar concentration of the added radiopeptide. A nonlinear regression analysis was performed using GraphPad Prism software (version 8.3.1).

[6] = system: HEK-ACE2 cells; test: Cell uptake and internalization in HEK-ACE2 cells; format: cell-based, human
Method: HEK-293 cells transfected with ACE2 or ACE, referred to as HEK-ACE2 and HEK-ACE, respectively, were obtained from Innoprot (Innovative Technologies in Biological Systems S.L. Bizkaia, Spain). The cells were cultured in Dulbecco’s Modified Eagle Medium (DMEM) supplemented with nonessential amino acids, fetal calf serum and antibiotics. Hygromycin B was used to maintain the expression of ACE2 and ACE, respectively. The HEK cells were cultured under standard conditions at 37 °C and 5% CO2 and subcultured using PBS/EDTA and trypsin.
The uptake and internalization of [^67Ga]Ga-DOTA-DX600, [^67Ga]Ga-NODAGA-DX600, [^67Ga]Ga-HBED-CC-DX600 and [^67Ga]Ga-DOTA-BPP9a were determined using HEK-ACE2 and HEK-ACE cells. The cells were seeded in poly-D-lysine-coated 12-well plates allowing cell adhesion and growth overnight. After rinsing the cells with PBS, they were incubated with the respective radiopeptide (25 µL, 1.9 pmol, 38 kBq). In some cell samples, the radiopeptides were co-incubated with excess of cyclo-DX600 (2 µM) or lisinopril (4 µM) to block ACE2 or ACE, respectively. After incubation of the cells for 1 h or 3 h, they were rinsed with PBS or acidic stripping buffer (glycine buffer with NaCl 0.9%, pH 2.8) to determine the total uptake and internalization of the radiopeptides, respectively. Cell samples were lysed using NaOH (1 M, 1 mL) before counting the activity in a γ-counter. The results were expressed as a percentage of total added activity and normalized to an average content of ~ 0.3 mg protein per well.
Methods: The methods for cell uptake studies are reported in the main article. The cyclo-DX600 (ACE2 inhibitor) and lisinopril (ACE inhibitor) were applied at a final concentration of 2 µM and 4 µM, respectively.

T1 sequence (Q9BYF1 18-805): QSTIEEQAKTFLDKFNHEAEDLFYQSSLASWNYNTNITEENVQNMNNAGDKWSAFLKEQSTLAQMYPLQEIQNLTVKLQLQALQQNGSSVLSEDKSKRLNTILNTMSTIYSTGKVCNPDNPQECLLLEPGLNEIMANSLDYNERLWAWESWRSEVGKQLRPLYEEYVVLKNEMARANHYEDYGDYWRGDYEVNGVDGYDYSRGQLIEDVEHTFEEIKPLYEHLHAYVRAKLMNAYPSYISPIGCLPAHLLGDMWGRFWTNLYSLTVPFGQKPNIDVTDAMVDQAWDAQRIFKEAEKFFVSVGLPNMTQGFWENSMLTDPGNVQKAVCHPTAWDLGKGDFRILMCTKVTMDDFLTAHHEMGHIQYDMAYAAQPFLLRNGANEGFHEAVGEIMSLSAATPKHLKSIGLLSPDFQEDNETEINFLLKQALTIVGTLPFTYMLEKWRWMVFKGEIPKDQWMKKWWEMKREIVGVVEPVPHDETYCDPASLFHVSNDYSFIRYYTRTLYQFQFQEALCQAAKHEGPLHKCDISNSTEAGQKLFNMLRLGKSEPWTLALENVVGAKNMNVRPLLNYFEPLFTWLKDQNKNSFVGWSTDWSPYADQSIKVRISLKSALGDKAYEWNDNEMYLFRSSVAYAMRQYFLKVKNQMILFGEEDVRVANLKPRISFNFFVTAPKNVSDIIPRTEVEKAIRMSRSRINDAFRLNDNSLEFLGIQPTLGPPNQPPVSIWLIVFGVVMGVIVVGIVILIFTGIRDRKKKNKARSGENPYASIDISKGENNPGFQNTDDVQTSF

## CC[C@H](C)[C@H](NC(=O)[C@H](CCC(N)=O)NC(=O)[C@@H]1CCCN1C(=O)[C@H](CCCNC(=N)N)NC(=O)[C@@H]1CCCN1C(=O)[C@H](Cc1c[nH]c2ccccc12)NC(=O)[C@H](CCC(=O)O)NC(=O)CCCCCNC(=O)CCCCCNC(=O)CN1CCN(CC(=O)O)CCN(CC(=O)O)CCN(CC(=O)O)CC1)C(=O)N1CCC[C@H]1C(=O)N1CCC[C@H]1C(=O)O [[^67Ga]Ga-DOTA-BPP9a, metal not drawn] ({DOTA-Ahx-Ahx}-EWPRPQIPP-OH)
[1]
  fraction unbound: 0.5
[2]
  Fraction bound to blood plasma proteins: ~ 49%
[3]
  fraction unbound: 0.47
[4]
  Fraction bound to blood plasma proteins: ~ 53%

## CC(=O)N[C@@H](CCCCNC(=O)CN1CCN(CC(=O)O)CCN(CC(=O)O)CCN(CC(=O)O)CC1)C(=O)NCC(=O)N[C@@H](CC(=O)O)C(=O)N[C@@H](Cc1ccc(O)cc1)C(=O)N[C@@H](CO)C(=O)N[C@@H](Cc1c[nH]cn1)C(=O)N[C@H]1CSSC[C@@H](C(=O)N[C@H](C(=O)N[C@@H](Cc2ccc(O)cc2)C(=O)N2CCC[C@H]2C(=O)N[C@@H](CC(=O)O)C(=O)N2CCC[C@H]2C(=O)N[C@@H](CCC(=O)O)C(=O)NCC(=O)NCC(=O)NCC(N)=O)[C@@H](C)O)NC(=O)[C@H](CCCCN)NC(=O)[C@H](Cc2c[nH]c3ccccc23)NC(=O)[C@H](Cc2c[nH]c3ccccc23)NC(=O)[C@@H]2CCCN2C(=O)[C@H](Cc2ccc(O)cc2)NC(=O)[C@H](Cc2ccc(O)cc2)NC(=O)[C@H](CCCNC(=N)N)NC(=O)[C@H](CC(C)C)NC(=O)[C@@H]2CCCN2C(=O)[C@H](CO)NC1=O [[^67Ga]Ga-DOTA-DX600, metal not drawn] (Ac-K(DOTA)GDYSHCSPLRYYPWWKCTYPDPEGGG-NH2; disulfide 7-18)
[5]
  Kd: 98 ± 10 nM

## CC(=O)N[C@@H](CCCCNC(=O)CCC(C(=O)O)N1CCN(CC(=O)O)CCN(CC(=O)O)CC1)C(=O)NCC(=O)N[C@@H](CC(=O)O)C(=O)N[C@@H](Cc1ccc(O)cc1)C(=O)N[C@@H](CO)C(=O)N[C@@H](Cc1c[nH]cn1)C(=O)N[C@H]1CSSC[C@@H](C(=O)N[C@H](C(=O)N[C@@H](Cc2ccc(O)cc2)C(=O)N2CCC[C@H]2C(=O)N[C@@H](CC(=O)O)C(=O)N2CCC[C@H]2C(=O)N[C@@H](CCC(=O)O)C(=O)NCC(=O)NCC(=O)NCC(N)=O)[C@@H](C)O)NC(=O)[C@H](CCCCN)NC(=O)[C@H](Cc2c[nH]c3ccccc23)NC(=O)[C@H](Cc2c[nH]c3ccccc23)NC(=O)[C@@H]2CCCN2C(=O)[C@H](Cc2ccc(O)cc2)NC(=O)[C@H](Cc2ccc(O)cc2)NC(=O)[C@H](CCCNC(=N)N)NC(=O)[C@H](CC(C)C)NC(=O)[C@@H]2CCCN2C(=O)[C@H](CO)NC1=O (some centres unmarked) [[^67Ga]Ga-NODAGA-DX600, metal not drawn] (Ac-K(NODAGA)GDYSHCSPLRYYPWWKCTYPDPEGGG-NH2; disulfide 7-18)
[6]; 3 h incubation, acidic stripping buffer
  Internalized fraction in HEK-ACE2 cells: 8.2 ± 0.3%
[6]; 3 h incubation, percentage of total added activity
  Uptake in HEK-ACE2 cells: 40 ± 3%
[6]; co-incubation with cyclo-DX600 2 µM
  Uptake in HEK-ACE2 cells in the presence of excess cyclo-DX600 (unspecifically bound): 3.1 ± 1.1%
